Source: paper PMC10454728, “A Comparative Study on the Lysosomal Cation Channel TMEM175 Using Automated Whole-Cell Patch-Clamp, Lysosomal Patch-Clamp, and Solid Supported Membrane-Based Electrophysiology: Functional Characterization and High-Throughput Screening Assay Development” (International Journal of Molecular Sciences, 2023)

Key:
[1] = molecular target: T1, TMEM175 (Homo sapiens, UniProt Q9BSA9); experiment: SSME cation selectivity assay with 4-AP block (SURFE2R 96SE); format: biochemical; conditions: 10 mM 4-AP
T1 sequence (Q9BSA9 1-504): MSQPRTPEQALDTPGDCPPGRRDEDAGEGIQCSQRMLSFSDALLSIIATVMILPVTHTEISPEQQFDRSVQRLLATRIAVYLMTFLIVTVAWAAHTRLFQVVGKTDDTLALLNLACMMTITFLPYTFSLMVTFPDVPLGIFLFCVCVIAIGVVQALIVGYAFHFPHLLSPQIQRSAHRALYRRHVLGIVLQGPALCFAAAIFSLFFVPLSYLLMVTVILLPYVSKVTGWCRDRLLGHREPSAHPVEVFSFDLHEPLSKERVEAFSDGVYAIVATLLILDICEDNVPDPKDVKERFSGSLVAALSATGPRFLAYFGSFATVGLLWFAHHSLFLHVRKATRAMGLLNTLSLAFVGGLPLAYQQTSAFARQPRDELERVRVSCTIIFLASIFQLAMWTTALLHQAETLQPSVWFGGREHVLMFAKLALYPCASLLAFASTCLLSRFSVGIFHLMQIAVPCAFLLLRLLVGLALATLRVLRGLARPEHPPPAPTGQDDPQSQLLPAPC
Source text: We performed the same experiment on lysosomes purified from HEK293 cells overexpressing TMEM175 (TMEM175 sample, Figure 2B) and control lysosomes that were purified from HEK293 cells expressing endogenous TMEM175 (control sample, Figure 2C), using a low sample dilution to enhance the signal-to-noise.
We also performed a similar series of experiments on the SURFE^2R 96SE, essentially reproducing the results found with the SURFE^2R N1 (Figure 2E). […] Supplementary Figure S2 contains representative current traces and additional experimental details.
We applied a solution exchange from 50 mM NMDG-Cl to 50 mM of a different Cl salt at pH 7.6; (B) Representative current traces recorded with the TMEM175 sample. All traces are recorded from the same sensor; (C) Representative current traces recorded with the control sample. Currents reflect background signals (artifacts) resulting from ion–membrane interactions; (D) Average peak currents and SD for N = 5 sensors recorded with the TMEM175 and control samples; (E) Average peak currents and SEM for N = 16 sensors, recorded with the TMEM175 (left) and control (right) sample. […]
Ion selectivity of TMEM175 recorded on the SURFE2R 96SE. Representative current traces recorded using different cation species on TMEM175 and control samples using the SURFE2R 96SE. […]

[2] = molecular target: T1, TMEM175; experiment: Manual lysosomal patch-clamp (LPC) on vacuolin-1 enlarged lysosomes; format: biochemical
Procedure: Since both technologies apply different assay conditions and samples, the origin of the discrepancies may not be concluded. To investigate potential systematic variations among different assay technologies, namely, whole-cell APC, SSME on purified lysosomes, and manual LPC, we conducted a comparative analysis of the potency and maximum potentiation of a set of eight blinded compounds and SC-79 (Figure 8, Table 4). SSME recordings were performed using the same procedures as described for the tool compounds above. However, adjustments were made to the voltage application protocol in APC, as outlined in the Methods section. Lysosomal patch-clamp was performed using a manual setup. In contrast to APC and SSME recordings, the recorded current in LPC represents H^+ efflux from lysosomes in the presence of a physiological pH gradient (details are provided in the Methods section).
Experiments were carried out in whole-lysosome configuration in voltage-clamp mode, using a modified patch-clamp method, as described by Chen et al..
Briefly, cells were treated overnight with 5 µM vacuolin-1 to increase the size of the lysosomes. Mechanical isolation was performed using a patch pipette pressed against a selected cell, and quickly pulled away to slice the cell membrane to release the enlarged lysosomes into the dish. After the dissection of the lysosomes, the glass electrode was exchanged for a recording electrode. After the formation of a giga-seal and compensation of capacitance transients, voltage steps of several hundred millivolts with millisecond duration were applied to break into the vacuolar membrane.
The bath solution representing the cytosol contained 10 mM HEPES (pH 7.2), 145 mM K-methanesulfonate and 5 mM KCl. The pipette solution representing the lysosomal lumen contained 10 mM MES (pH 5.5), 145 mM Cs-methanesulfonate, 5 mM KCl, and 10 mM EGTA.
After the reappearance of capacitance transients to verify the whole-lysosome configuration, the TMEM175 currents were recorded using a ramp protocol from −100 to +100 mV with 1 s of duration, digitized at 20 kHz. The ramp protocol was repeated in 4 s intervals, keeping the lysosomes at 0 mV in between. We used the outward current at +100 mV as a read-out, essentially observing the flux of H^+ and Cs^+ from the lysosome into the cytosol. […]
Before averaging across datasets obtained from N = 3 lysosomes, we normalized the currents to the control current. Datasets containing 6 or 9 compound concentrations were recorded in two or three sets of experiments with 3 compound concentrations per lysosome. All experiments were conducted at room temperature, and recordings were analyzed with pClamp 10.7 and GraphPad Prism 8.

Imax − Imin (nA), LPC ([2]; Table 4 fit, currents normalized to current before compound)	n (Hill coefficient), LPC ([2]; fixed to 1 in the fit)	Potentiation, LPC ([2]; from dose-response fit, Figure 8)	EC50 ([2]; outward current at +100 mV, pipette pH 5.5 / bath pH 7.2)	Structure (SMILES)	Block of TMEM175 net currents for K+, Rb+ and Cs+ [1]
				Nc1ccncc1 [4-AP, 4-aminopyridine]	complete blockade
0.91 ± 0.52 nA	1	91 ± 52%	21 ± 32 µM	CCOC(=O)C1=C(N)Oc2ccc(Cl)cc2C1C(C#N)C(=O)OCC (centres unmarked) [SC-79]	
